Measured values published in patent US8552208B2, “Analogs of tetramic acid” (University of Tennesseee Research Foundation, priority 2007, dated 2013).
≈ marks a conversion by molar mass, not a printed value. Read-outs that look alike come from different tables or passages of the source.

Legend:
[1] = tested on: Streptococcus pneumoniae DAW30EC; assay: Antibacterial activity assay (MIC, broth dilution); format: cell-based; details: Streptococcus pneumoniae DAW30EC; read-out: MIC, SPn
[2] = tested on: S. epidermidis (RP62A) biofilm; assay: Calgary Biofilm Device anti-biofilm activity; format: cell-based; details: Staphylococcus epidermidis; for MBC: read-out: MBEC = Minimum Biofilm Eradication Concentration; for MIC: read-out: MBIC = Minimum Biofilm Inhibitory Concentration
[3] = tested on: Propionibacterium acnes ATCC 6919; assay: Antibacterial activity assay (MIC, broth dilution); format: cell-based; details: Cutibacterium acnes, ATCC6919; Propionibacterium acnes ATCC 6919; read-out: MIC, PA
[4] = tested on: Bacillus anthracis Sterne 34F2; assay: microbe, parasite or virus in culture; format: cell-based; details: STERNE34F2, read-out: MIC, BA
[5] = tested on: Enterococcus faecalis ATCC 33186; assay: Antibacterial activity assay (MIC, broth dilution); format: cell-based; details: ATCC33186; Enterococcus faecalis ATCC 33186; read-out: MIC, EF
[6] = tested on: Streptococcus pyogenes ATCC 700294; assay: Antibacterial activity assay (MIC, broth dilution); format: cell-based; details: ATCC700294; Streptococcus pyogenes ATCC 700294; read-out: MIC, SP
[7] = tested on: Bacillus subtilis ATCC 23857; assay: Antibacterial activity assay (MIC, broth dilution); format: cell-based; details: ATCC23857; Bacillus subtilis ATCC 23857; read-out: MIC, BS
[8] = tested on: MSSA (ATCC 25293) biofilm; assay: Calgary Biofilm Device anti-biofilm activity; format: cell-based; details: Staphylococcus aureus; for MBC: read-out: MBEC = Minimum Biofilm Eradication Concentration; for MIC: read-out: MBIC = Minimum Biofilm Inhibitory Concentration
[9] = tested on: MRSA (ATCC 35391) biofilm; assay: Calgary Biofilm Device anti-biofilm activity; format: cell-based, Staphylococcus aureus; details: for MBC / MIC: Staphylococcus aureus; for MBC: read-out: MBEC = Minimum Biofilm Eradication Concentration; for MIC: read-out: MBIC = Minimum Biofilm Inhibitory Concentration
[10] = tested on: Methicillin sensitive Staphylococcus aureus 8325 ATCC 35556; assay: Antibacterial activity assay (MIC, broth dilution); format: cell-based; details: ATCC 35556 / MSSA; Methicillin sensitive Staphylococcus aureus 8325 ATCC 35556; read-out: MIC, MSSA
[11] = tested on: Methicillin Resistant Staphylococcus aureus ATCC 33591; assay: Antibacterial activity assay (MIC, broth dilution); format: cell-based; details: ATCC 33591 / MRSA, read-out: MIC, MRSA
[12] = tested on: Mycobacterium tuberculosis H37 Rv; assay: Antibacterial activity assay (MIC, broth dilution); format: cell-based; details: H37RV, 168 h; Mycobacterium tuberculosis H37 Rv; […]; read-out: MIC, TB
Cytotoxicity assay (MTT) = format: cell-based, monkey; details: monkey, Vero cells, 72 hours, MTT, read-out: IC50 (Cytotoxicity): Concentration which reduces viability of Vero kidney cells by 50%
Description: (§1) Cytotoxicity assays of drugs of Formula I of Example 3 and of Formula II of Example 5 were performed using the Vero monkey kidney cell line (ATCC, CCL-81). Vero cells were grown in tissue culture flasks in Dulbecco's Modified Eagle's Medium (ATCC) supplemented with 10% fetal bovine serum and maintained in a humidified incubator (37° C., 5% CO2). Cells were removed with a cell scraper, collected by centrifugation and then suspended in fresh medium at ˜10^6 cells/mL. The cell suspensions were dispensed into 96-well microtiter plates (100 μl/well) and incubated for 18 hours at 37° C. before being used for cytotoxicity assays. Test compounds were subsequently added at concentrations ranging from 400-0.024 μg/mL and 0.1% vol/vol of Triton-X 100, which causes 100% death of cells, was included as a control. After incubating cells and compounds for 72 hours in humid air (37° C., 5% CO2) the cytopathic effects of compounds were determined using the MTT Cell Proliferation Assay (ATCC, Cat No. 30-1010K). The MTT solution reagent (10 μl) was added to each well and plates incubated at 37° C. until sufficient purple color development occurred in cells (3 hours). After detergent cell lysis, the purple formazan product was measured at 570 nm in a Synergy HT Biotek microplate reader. IC50 data was obtained from dose response curves plotted from percentage activity versus log10 concentration using Graphpad prism 5.

[13] = tested on: Vero monkey kidney cell line (ATCC, CCL-81); assay: Cytotoxicity assay (MTT); format: cell-based; details: IC50 divided by MIC against S. aureus 8325
Description: as §1

[14] = tested on: clinical isolates of MSSA (methicillin sensitive S. aureus); format: cell-based
[15] = tested on: clinical isolates of MRSA (methicillin resistant S. aureus); format: cell-based
[16] = S. epidermidis biofilm, triplicate runs listed singly
[17] = MSSA biofilm, triplicate runs listed singly
[18] = MRSA biofilm, triplicate runs listed singly
[19] = Vero monkey kidney cells (ATCC CCL-81)

Row | SMILES | MIC [1] [µg/mL] | MIC [2, 16] [µg/mL] | MIC [3] [µg/mL] | MIC [4] [µg/mL] | MIC [5] [µg/mL] | MIC [6] [µg/mL] | MIC [7] [µg/mL] | MBC [8, 17] [µg/mL] | MIC [8, 17] [µg/mL] | MIC [9, 18] [µg/mL] | MIC [10] [µg/mL] | MIC [11] [µg/mL] | MIC [12] [µg/mL] | IC50 at 72 h (Cytotoxicity assay (MTT); [19]) [µg/mL] | IC50/MIC = Selectivity (therapeutic) index [13] | further results
1 | CCCCCCCCCCN1C(=O)/C(=C(/C)O)C(=O)[C@@H]1C(C)C [Compound 13i, (S,Z)-1-decyl-3-(1-hydroxyethylidene)-5-isopropylpyrrolidine-2,4-dione] | 6.25 (≈ 19.3 µM) | 0.8 (≈ 2.47 µM) | 0.4 (≈ 1.24 µM) | 0.8 (≈ 2.47 µM) | 0.8 (≈ 2.47 µM) | 25 (≈ 77.3 µM) | 0.4 (≈ 1.24 µM) | 100 (≈ 309 µM) | 0.8 (≈ 2.47 µM) | 0.8 (≈ 2.47 µM) | 0.8 (≈ 2.47 µM) | 0.8 (≈ 2.47 µM) | 12.5 (≈ 38.6 µM) | 7 | 8.8 | MBC [2, 16]: 25 µg/mL (≈ 77.3 µM); MBC [9, 18]: 25 µg/mL (≈ 77.3 µM)
2 | CCCCN1C(=O)/C(=C(/C)O)C(=O)[C@@H]1CC(C)C [Compound 13j, (S,Z)-1-butyl-3-(1-hydroxyethylidene)-5-isobutylpyrrolidine-2,4-dione] | 100 (≈ 395 µM) |  | 0.8 (≈ 3.16 µM) | 12.5 (≈ 49.3 µM) | 1.6 (≈ 6.32 µM) | > 200 | 6.25 (≈ 24.7 µM) |  |  |  | 3.12 (≈ 12.3 µM) | 6.25 (≈ 24.7 µM) | 100 (≈ 395 µM) |  | 81.4 | Antibiotic MIC ([14]; isolate MSSA-11): 12.5 µg/mL; Antibiotic MIC ([14]; isolate MSSA-12): 6.25 µg/mL; Antibiotic MIC ([14]; isolate MSSA-13): 12.5 µg/mL; Antibiotic MIC ([14]; isolate MSSA-14): 25 µg/mL; Antibiotic MIC ([14]; isolate MSSA-15): 3.12 µg/mL; Antibiotic MIC ([14]; isolate MSSA-16): 6.25 µg/mL; Antibiotic MIC ([14]; isolate MSSA-17): 6.25 µg/mL; Antibiotic MIC ([14]; isolate MSSA-18): 6.25 µg/mL; Antibiotic MIC ([14]; isolate MSSA-19): 3.12 µg/mL; Antibiotic MIC ([14]; isolate MSSA-20): 25 µg/mL; Antibiotic MIC ([15]; isolate MRSA-1): 50 µg/mL; Antibiotic MIC ([15]; isolate MRSA-2): 25 µg/mL; Antibiotic MIC ([15]; isolate MRSA-3): 25 µg/mL; Antibiotic MIC ([15]; isolate MRSA-4): 25 µg/mL; Antibiotic MIC ([15]; isolate MRSA-5): 25 µg/mL; Antibiotic MIC ([15]; isolate MRSA-6): 25 µg/mL; Antibiotic MIC ([15]; isolate MRSA-7): 50 µg/mL; Antibiotic MIC ([15]; isolate MRSA-9): 6.25 µg/mL; Antibiotic MIC ([15]; isolate MRSA-10): 50 µg/mL; IC50 at 72 h (Cytotoxicity assay (MTT)): 254 µg/mL
3 | CC(C)=CCCC(C)CCN1C(=O)/C(=C(/C)O)C(=O)[C@@H]1CC(C)C (stereo partly drawn) [Compound 13m, (5S,Z)-1-(3,7-dimethyloct-6-enyl)-3-(1-hydroxyethylidene)-5-isobutylpyrrolidine-2,4-dione] | 3.25 (≈ 9.69 µM) | 0.4 (≈ 1.19 µM) | 0.4 (≈ 1.19 µM) | 0.4 (≈ 1.19 µM) | 0.8 (≈ 2.38 µM) | 25 (≈ 74.5 µM) | 0.8 (≈ 2.38 µM) | 200 (≈ 596 µM) | 0.8 (≈ 2.38 µM) | 0.8 (≈ 2.38 µM) | 0.4 (≈ 1.19 µM) | 0.8 (≈ 2.38 µM) | 200 (≈ 596 µM) |  | 18.3 | MBC [2, 16]: 200 µg/mL (≈ 596 µM); MBC [9, 18]: 50 µg/mL (≈ 149 µM); IC50 at 72 h (Cytotoxicity assay (MTT)): 7.3 µg/mL
4 | CCCCCCCCCCN1C(=O)/C(=C(/C)O)C(=O)[C@@H]1Cc1ccccc1 [Compound 13n, (S,Z)-5-benzyl-1-decyl-3-(1-hydroxyethylidene)pyrrolidine-2,4-dione] | 12.5 (≈ 33.6 µM) |  | 0.4 (≈ 1.08 µM) | 0.2 (≈ 0.538 µM) | 0.8 (≈ 2.15 µM) | 50 (≈ 135 µM) | 0.4 (≈ 1.08 µM) |  |  |  | 0.2 (≈ 0.538 µM) | 0.8 (≈ 2.15 µM) | 50 (≈ 135 µM) | 21.1 | 105.5 | Antibiotic MIC ([14]; isolate MSSA-11): 0.8 µg/mL; Antibiotic MIC ([14]; isolate MSSA-12): 0.8 µg/mL; Antibiotic MIC ([14]; isolate MSSA-13): 0.8 µg/mL; Antibiotic MIC ([14]; isolate MSSA-14): 1.6 µg/mL; Antibiotic MIC ([14]; isolate MSSA-15): 0.2 µg/mL; Antibiotic MIC ([14]; isolate MSSA-16): 0.8 µg/mL; Antibiotic MIC ([14]; isolate MSSA-17): 0.8 µg/mL; Antibiotic MIC ([14]; isolate MSSA-18): 0.8 µg/mL; Antibiotic MIC ([14]; isolate MSSA-19): 0.4 µg/mL; Antibiotic MIC ([14]; isolate MSSA-20): 0.8 µg/mL; Antibiotic MIC ([15]; isolate MRSA-1): 1.6 µg/mL; Antibiotic MIC ([15]; isolate MRSA-2): 1.6 µg/mL; Antibiotic MIC ([15]; isolate MRSA-3): 1.6 µg/mL; Antibiotic MIC ([15]; isolate MRSA-4): 0.8 µg/mL; Antibiotic MIC ([15]; isolate MRSA-5): 0.8 µg/mL; Antibiotic MIC ([15]; isolate MRSA-6): 0.8 µg/mL; Antibiotic MIC ([15]; isolate MRSA-7): 0.8 µg/mL; Antibiotic MIC ([15]; isolate MRSA-8): 0.2 µg/mL; Antibiotic MIC ([15]; isolate MRSA-9): 0.8 µg/mL; Antibiotic MIC ([15]; isolate MRSA-10): 0.8 µg/mL
5 | CCCCCCCCCCN1C(=O)/C(=C(/C)O)C(=O)[C@H]1CC(C)C [Compound 13o, (R,Z)-1-decyl-3-(1-hydroxyethylidene)-5-isobutylpyrrolidine-2,4-dione] | 6.25 (≈ 18.5 µM) |  | 0.8 (≈ 2.37 µM) | 0.8 (≈ 2.37 µM) | 1.6 (≈ 4.74 µM) | 50 (≈ 148 µM) | 0.8 (≈ 2.37 µM) |  |  |  | 0.4 (≈ 1.19 µM) | 0.8 (≈ 2.37 µM) | 25 (≈ 74.1 µM) | 6.3 | 15.8 | 
6 | CO[C@H]1/C=C/O[C@@]2(C)Oc3c(C)c(O)c4c(O)c(c(/C=N/N5CCN(C)CC5)c(O)c4c3C2=O)NC(=O)/C(C)=C\C=C\[C@H](C)[C@H](O)[C@@H](C)[C@@H](O)[C@@H](C)[C@H](OC(C)=O)[C@@H]1C [Rifampicin, rifampicin, reference compound] |  | < 0.2 |  |  |  |  |  | 100 (≈ 122 µM) | 0.4 (≈ 0.486 µM) | < 0.2 |  |  |  |  |  | MBIC = Minimum Biofilm Inhibitory Concentration [9, 18]: <0.2 µg/mL
7 | CN[C@H](CC(C)C)C(=O)N[C@H]1C(=O)N[C@@H](CC(N)=O)C(=O)N[C@H]2C(=O)N[C@H]3C(=O)N[C@H](C(=O)N[C@H](C(=O)O)c4cc(O)cc(O)c4-c4cc3ccc4O)[C@H](O)c3ccc(c(Cl)c3)Oc3cc2cc(c3O[C@@H]2O[C@H](CO)[C@@H](O)[C@H](O)[C@H]2O[C@H]2C[C@](C)(N)[C@H](O)[C@H](C)O2)Oc2ccc(cc2Cl)[C@H]1O [Vancomycin, vancomycin, reference compound] |  |  |  |  |  |  |  |  |  |  |  |  |  |  |  | MBC [2]: > 400 µg/mL; MIC [2]: 12.5 µg/mL (≈ 8.63 µM); MBC [8]: > 400 µg/mL; MBC [9]: > 400 µg/mL; MIC [9]: 1.6 µg/mL (≈ 1.1 µM)
